These are literature values, as cited in patent US20120135069A1, “NANONIZED TESTOSTERON FORMULATIONS FOR IMPROVED BIOAVAILABILITY” (PHARMASOL GMBH, priority 2009, published 2012).

For data set [1] the following is noted: in vivo.
For data set [2] the following is noted: taken orally.

As to `C[C@]12CCC(=O)C=C1CC[C@@H]1[C@@H]2CC[C@@]2(C)[C@H]1CC[C@]2(C)O` [methyltestosterone], in data set [1], the liver toxicity result is “very liver toxic”.
`C[C@]12CC[C@H]3[C@@H](CCC4=CC(=O)CC[C@@]43C)[C@@H]1CC[C@@H]2O` [testosterone]: the “fraction of the drug immediately metabolised by liver enzymes (first pass effect)” value in data set [2] is on record as “about 99%”.
